Test system: UM-UC-3 cells
Assay: CellTiter-Glo viability and CalcuSyn synergy, PRMT5 inhibitor + sotorasib, 6 days
Assay type: cell-based
Details: for Combination Fa: 8640 min
Procedure: Raw luminescent values were converted to fraction affected (Fa) with the following equation: […]
Synergy analysis was performed using the CalcuSyn software to determine CI scores based on the drug concentrations used and corresponding Fa values. Results are shown in Table 6 below. *CI Values (Calcusyn): Strong Synergism: 0.1-0.3; Synergism: 0.3-0.7; Moderate Synergism: 0.7-0.85; Slight Synergism: 0.85-0.9; Nearly Additive: 0.9-1.1.

[1] = Compound B 0.2916 μM + sotorasib 0.00298 μM
[2] = Compound B 0.2916 μM + sotorasib 0.004768 μM
[3] = Compound B 0.2916 μM + sotorasib 0.007629 μM
[4] = Compound B 0.2916 μM + sotorasib 0.012207 μM
[5] = Compound B 0.2916 μM + sotorasib 0.019531 μM
[6] = Compound B 0.2916 μM + sotorasib 0.03125 μM

Compound: Cc1cc2cc(C(=O)N(Cc3ccc(C(F)(F)F)cn3)[C@@H](C)c3ncccn3)ccc2nc1N [Compound B]
- Computed CI value [1]: 1.172
- Combination Fa [1]: 0.5393
- Computed CI value [2]: 1.028
- Combination Fa [2]: 0.6004
- Computed CI value [3]: 0.778
- Combination Fa [3]: 0.6836
- Computed CI value [4]: 0.685
- Combination Fa [4]: 0.7355
- Computed CI value [5]: 0.677
- Combination Fa [5]: 0.7685
- Computed CI value [6]: 0.584
- Combination Fa [6]: 0.8141

From US20260373156A1, “CANCER TREATMENTS USING MTA-COOPERATIVE PRMT5 INHIBITORS” (AMGEN INC., priority 2022, published 2026)
